# Results as given in patent publication US20150315188A1, “COMPOUNDS AND METHODS FOR TREATMENT OF HYPERTENSION” (MEDIVATION TECHNOLOGIES, INC., priority 2012, published 2015).
# Columns and labels:
# Parameters in all cases: purchased Milipore (Millipore)
# [1] = molecular target: T1, Human adrenergic α2A receptor (Homo sapiens, UniProt P08913); test: Radioligand binding, adrenergic α2A (Protocol Group B); conditions: Protocol Group B; for Percentage inhibition of ligand binding, Adrenergic α2A (0.1 μM) / inhibition at 0.1 µM: 0.1 μM compound; for Percentage inhibition of ligand binding, Adrenergic α2A (0.3 μM) / inhibition at 0.3 µM: 0.3 μM compound; for inhibition at 0.1 µM: read-out: Percentage inhibition of ligand binding, Adrenergic α2A (0.1 μM); for inhibition at 0.3 µM: read-out: Percentage inhibition of ligand binding, Adrenergic α2A (0.3 μM)
# T1 sequence (P08913 1-465): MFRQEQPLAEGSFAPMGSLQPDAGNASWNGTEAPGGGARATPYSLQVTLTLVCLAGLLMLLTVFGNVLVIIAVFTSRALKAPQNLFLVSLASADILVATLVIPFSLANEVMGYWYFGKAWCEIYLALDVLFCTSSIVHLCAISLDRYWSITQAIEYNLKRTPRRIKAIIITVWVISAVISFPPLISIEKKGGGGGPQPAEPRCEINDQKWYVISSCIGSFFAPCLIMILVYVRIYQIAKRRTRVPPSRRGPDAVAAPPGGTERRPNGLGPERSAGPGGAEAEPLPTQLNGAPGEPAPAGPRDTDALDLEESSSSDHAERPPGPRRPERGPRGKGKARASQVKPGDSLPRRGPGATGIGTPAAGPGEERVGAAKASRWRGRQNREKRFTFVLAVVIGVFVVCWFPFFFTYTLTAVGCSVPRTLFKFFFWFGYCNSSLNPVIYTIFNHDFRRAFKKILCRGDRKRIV
# Procedure, shortened: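 Membranes from recombinant cells expressing the receptor, in 50 mM Tris-HCl pH 7.4 with 5 mM MgCl2, 1 mM CaCl2, 0.2% BSA; compounds incubated with 2 nM [^3H]MK-912 for 60 min at 25° C. Nonspecific binding defined by 10 μM rauwolscine; filtration, counting; percent inhibition of specific binding, or estimated Ki.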
# [2] = molecular target: T2, Human adrenergic α1B receptor (Homo sapiens, UniProt P35368); test: Radioligand binding, adrenergic α1B (Protocol Group B); conditions: Protocol Group B; for Percentage inhibition of ligand binding, Adrenergic α1B (0.1 μM) / inhibition at 0.1 µM: 0.1 μM compound; for Percentage inhibition of ligand binding, Adrenergic α1B (0.3 μM) / inhibition at 0.3 µM: 0.3 μM compound; for inhibition at 0.1 µM: read-out: Percentage inhibition of ligand binding, Adrenergic α1B (0.1 μM); for inhibition at 0.3 µM: read-out: Percentage inhibition of ligand binding, Adrenergic α1B (0.3 μM)
# T2 sequence (P35368 1-520): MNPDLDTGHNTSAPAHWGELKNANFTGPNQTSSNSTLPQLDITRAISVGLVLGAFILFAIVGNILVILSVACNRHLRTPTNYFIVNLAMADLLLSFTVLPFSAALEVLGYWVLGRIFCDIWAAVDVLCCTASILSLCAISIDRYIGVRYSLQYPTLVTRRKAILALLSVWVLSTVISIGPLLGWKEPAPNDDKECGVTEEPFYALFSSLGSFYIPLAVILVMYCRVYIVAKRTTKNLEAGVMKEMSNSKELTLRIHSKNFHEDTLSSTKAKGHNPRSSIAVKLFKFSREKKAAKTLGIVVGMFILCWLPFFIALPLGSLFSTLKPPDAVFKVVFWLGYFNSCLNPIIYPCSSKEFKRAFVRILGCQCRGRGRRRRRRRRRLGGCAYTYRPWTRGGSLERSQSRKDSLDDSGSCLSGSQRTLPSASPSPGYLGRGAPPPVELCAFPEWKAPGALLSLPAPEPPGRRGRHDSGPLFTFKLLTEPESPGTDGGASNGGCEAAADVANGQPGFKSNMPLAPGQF
# Procedure, shortened: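 Recombinant human α1B membranes incubated with test compound and 0.3 nM [3H]prazosin, 60 min at 25 °C, in 50 mM Tris-HCl pH 7.4, 10 mM MgCl2, 1 mM EDTA; nonspecific binding with 10 μM prazosin. Filter-bound radioactivity counted; values are % inhibition of specific binding or estimated Ki.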
# [3] = molecular target: T3, Human adrenergic α2B receptor (Homo sapiens, UniProt P18089); test: Radioligand binding, adrenergic α2B (Protocol Group B); conditions: Protocol Group B; for Percentage inhibition of ligand binding, Adrenergic α2B (10 nM) / inhibition at 0.01 µM: 10 nM compound; for Percentage inhibition of ligand binding, Adrenergic α2B (10 nM): 0.01 µM; for Percentage inhibition of ligand binding, Adrenergic α2B (30 nM) / inhibition at 0.03 µM: 30 nM compound; for Percentage inhibition of ligand binding, Adrenergic α2B (30 nM): 0.03 µM; for Percentage inhibition of ligand binding, Adrenergic α2B (0.1 μM) / inhibition at 0.1 µM: 0.1 μM compound; for inhibition at 0.01 µM: read-out: Percentage inhibition of ligand binding, Adrenergic α2B (10 nM); for inhibition at 0.03 µM: read-out: Percentage inhibition of ligand binding, Adrenergic α2B (30 nM); for inhibition at 0.1 µM: read-out: Percentage inhibition of ligand binding, Adrenergic α2B (0.1 μM)
# T3 sequence (P18089 1-450): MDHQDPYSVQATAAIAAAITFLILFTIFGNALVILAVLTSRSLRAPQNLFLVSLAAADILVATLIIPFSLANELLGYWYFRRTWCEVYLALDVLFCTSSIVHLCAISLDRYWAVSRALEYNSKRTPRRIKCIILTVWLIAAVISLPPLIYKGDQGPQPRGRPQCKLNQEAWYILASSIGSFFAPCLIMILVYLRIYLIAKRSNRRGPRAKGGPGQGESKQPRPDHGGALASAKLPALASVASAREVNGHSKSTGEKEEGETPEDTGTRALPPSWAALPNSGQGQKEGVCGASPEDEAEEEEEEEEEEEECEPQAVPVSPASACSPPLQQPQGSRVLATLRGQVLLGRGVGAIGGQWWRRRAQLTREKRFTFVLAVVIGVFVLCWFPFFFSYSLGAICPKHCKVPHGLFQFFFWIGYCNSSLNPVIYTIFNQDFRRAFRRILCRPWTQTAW
# Procedure, shortened: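 Recombinant human α2B receptor membranes incubated with compounds in 50 mM Tris-HCl pH 7.4, 5 mM MgCl2, 1 mM CaCl2, 0.2% BSA, 1% DMSO vehicle. Non-specific binding defined with 10 μM rauwolscine. Values are percent inhibition of specific binding or estimated Ki.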
Compound,"Percentage inhibition of ligand binding, Adrenergic α2A (0.1 μM) [1] [%]","Percentage inhibition of ligand binding, Adrenergic α2A (0.3 μM) [1] [%]","Percentage inhibition of ligand binding, Adrenergic α1B (0.1 μM) [2] [%]","Percentage inhibition of ligand binding, Adrenergic α1B (0.3 μM) [2] [%]","Percentage inhibition of ligand binding, Adrenergic α2B (10 nM) [3] [%]","Percentage inhibition of ligand binding, Adrenergic α2B (30 nM) [3] [%]","Percentage inhibition of ligand binding, Adrenergic α2B (0.1 μM) [3] [%]",inhibition at 0.01 µM [3] [%],inhibition at 0.1 µM [1] [%],inhibition at 0.3 µM [1] [%],inhibition at 0.1 µM [2] [%],inhibition at 0.3 µM [2] [%],inhibition at 0.03 µM [3] [%],inhibition at 0.1 µM [3] [%],"Ki ([3]; estimated Ki, read-out: Ki α2B) [nM]"
"CC(O)(Cn1c2c(c3cc(Cl)cc(F)c31)C1CCCN1CC2)c1cccnc1 (single isomer, unassigned) [53c]",−10,−15,1,−6,−4,4,1,,,,,,,,
Cc1ccc2c(c1)c1c(n2CC(C)(O)c2cccnc2)CC2CCCN2C1 (centres unmarked) [41a],−7,6,−2,−3,24,51,80,,,,,,,,
"Cc1ccc2c(c1)c1c(n2CC(O)c2ccncc2)CNC2CCCC12 (single isomer, unassigned) [34a]",−9,−5,−2,−10,,−12,−11,21,,,,,,,
"Cc1cc2c3c(n(CC(O)c4ccncc4)c2cc1Cl)CCN1CCCC31 (centres unmarked) [compound 21, 2-(8-chloro-9-methyl-1,2,3,4,5,10c-hexahydro-3a, 6-diaza-cyclopenta[c]fluoren-6-yl)-1-pyridin-4-yl-ethanol]",,,,,,,,85,78,89,84,95,96,96,
"CC(O)(Cn1c2c(c3cc(Cl)cc(F)c31)CN1CCCC1C2)c1ccncc1 (single isomer, unassigned) [86a]",−4,,,30,−2,,,,,11,2,,23,,
"Cc1ccc2c(c1)c1c(n2CC(C)(O)c2ccc(C(=O)N(C)CC3CC3)nc2)CCN(C)C1 (centres unmarked) [compound 33, N-(cyclopropylmethyl)-5-(1-(2,8-dimethyl-3,4-dihydro-1H-pyrido[4,3-b]indol-5(2H)-yl)-2-hydroxypropan-2-yl)-N-methylpicolinamide]",,,,,,,,6,-10,4,-12,-1,8,38,
"Cc1ccc2c(c1)c1c(n2CC(C)(O)c2ccncc2)CCN2CCCC12 (single isomer, unassigned) [13d]",3,20,−7,9,7,27,76,,,,,,,,
"Cc1ccc2c(c1)c1c(n2CC(C)(O)c2ccncc2)CC2CCCN2C1 (single isomer, unassigned) [37b]",15,17,40,68,25,48,75,,,,,,,,
Cc1cc(C)c2c(c1)c1c(n2CC(O)C2CCCCC2)CCN2CCCC12 (centres unmarked) [141a],,,,,,,,,85,,55,,93,,
"CC(O)(Cn1c2c(c3cc(Cl)cc(F)c31)C1CCCN1CC2)c1cccnc1 (single isomer, unassigned) [53a]",60,,12,,,,,87,,74,,50,97,98,1.7
"Cc1ccc2c(c1)c1c(n2CC(C)(O)c2cccnc2)CC2CCC1N2C (single isomer, unassigned) [101c]",6,7,12,7,7,5,16,,,,,,,,
"CC(O)(Cn1c2c(c3cc(F)ccc31)C1CCCN1CC2)c1ccncc1 (single isomer, unassigned) [31c]",0,−21,1,−4,,−2,45,3,,,,,,,
